According to US20170260169A1, “INHIBITORS FOR STEROID RESPONSE ELEMENTS AND RNA POLYMERASE II AND RELATED METHODS” (priority 2007, published 2017):

What was measured:
p53 = p53 protein ELISA in LNCaP cells; type: cell-based; details: polyamide 10 μM 72 hr; doxorubicin 1 μM 24 hr
Experimental: Cellular levels of RPB1 and p53 protein in LNCaP cells after treatment with 10 μM 3 for 72 h were determined by ELISA. Cells treated with DMSO vehicle and 1 μM doxorubicin for 24 h were used as control. Cellular RBP1 levels were determined by a RPB1 specific ELISA kit (Cusabio Life Sciences) according to manufacturer's instructions. Total cellular p53 protein level was determined with a pan-p53 ELISA kit (Roche) according to manufacturer's instructions. Assays were performed in biological triplicates.

LNCaP xenografts = LNCaP xenografts in male NSG mice; type: in vivo
Experimental: All mice experiments were conducted under an approved protocol by the Institutional Animal Care and Use Committee of the California Institute of Technology. Male NOD scid gamma (NSG) mice were purchased from The Jackson Laboratory. The animals were individually caged and maintained on a standard light-dark cycle. NSG mice were engrafted with LNCaP cells (2.5 million cells) in a mixture of 1:1 media and matrigel in the left flank. Tumors were grown to ˜100 mm^3 (L×W^2) before beginning treatment with compound or vehicle. Py-Im polyamide 77 was administered once every 3 days in a 5% DMSO:PBS vehicle solution until the experiment endpoint.
To investigate if polyamide 77 could be detected in peripheral blood after SC injections, 120 nmol of 77 (in 5% DMSO/PBS) was injected into the right flank of four C57BL/6 mice. Blood was collected from anesthetized mice via retroorbital collection at 5 minutes, 4 h, and 12 h after injection, then processed by methods previously described and analyzed by HPLC (35). For measurement of serum PSA (KLK3) and uric acid, blood was collected from anesthetized mice via retroorbital collection at experimental endpoint and serum was separated from blood by centrifugation. Serum PSA (KLK3) was measured by ELISA (R&D systems) according to manufacturer's instructions. Uric acid was measured as described (36).
Tumors were resected immediately after euthanasia and fixed in neutral buffered formalin. Selected samples were embedded in paraffin, sectioned and stained with hematoxylin and eosin (H&E). Selected sections were assessed by deoxynucleotidyltransferase dUTP nick-end labeling (TUNEL) as described (45).
Mice experiments were conducted under an approved protocol by the Institutional Animal Care and Use Committee of the California Institute of Technology. Male C57BL6/J mice and male NSG mice were purchased from The Jackson Laboratory. All animals were maintained on a standard light-dark cycle. LNCaP cells (2.5 million cells) were engrafted in a mixture of 1:1 media and matrigel in the left flank of NSG mice. Tumors were allowed grow to ˜200 mm^3 (0.5×L×W^2) before treatment. Py-Im polyamide 78 was administered by SC injection once every 3 d at 1 mg/kg in a 20% (vol/vol) DMSO:Normal saline vehicle solution for 6 injections. Animals were sacrificed two days after the final injection. Animal weight and general health were monitored daily. Fourteen animals were used for each treatment group.

LNCaP cells = test: Cell viability WST-1 assay; type: cell-based; details: LNCaP
Experimental: LNCaP cells were plated in clear bottom 96 well plates at 5,000-7,500 cells per well. The cells were allowed to adhere for 24-36 h before compounds were added in fresh media. Cell viability was determined by the WST-1 assay (Roche) for 77 and 85 after 24 h or 72 h incubation with cells. Cells in cytotoxicity rescue experiments were treated with 85 alone or with 3 μM for 24 h.
LNCaP cells were plated in clear bottom 96-well plates at 5,000-7,500 cells per well and allowed to adhere for 36-48 h. Compounds were then added in fresh media. Cell metabolic activity was determined by the WST-1 assay (Roche) after 72-h incubation with cells. Quantification was performed on a Perkin Elmer Victor 3 plate reader. Assays were performed in biological triplicates.

[1] = tested on: AR occupancy at the FKBP5 intronic enhancer; test: Chromatin immunoprecipitation with anti-AR, FKBP5 fifth intron enhancer; type: cell-based; details: 10 μM
[2] = Escalating single dose subcutaneous injections, male C57BL/6J mice (weight, histopathology, serum)
Experimental: Representative mice (n=2 per dosing group unless otherwise noted) were subjected to histopathology analysis by a veterinary pathologist. Blood from all mice was sampled and sent for analysis of serum markers of target organs. […] These mice were euthanized when significant duress was apparent.
All animal experiments were conducted under an approved protocol at the California Institute of Technology. Animals were allowed to adjust for 3 days after arrival before treatment. […] Animals were monitored daily for weight loss over 9 days and sacrificed. […] Weight was recorded on days of injection and at the experiment endpoint.
Sacrificed animals from weight loss experiments were fixed in 10% formalin and sent for histopathology analysis by IDEXX-RADIL. Histopathologic analysis was performed on the cecum, duodenum, heart, ileum, kidney, liver, lung, pancreas, spleen, and stomach. Tissue analysis was performed as a blind study to the identity of the animals.
Serum from treated animals were collected by retroorbital bleeding. Blood samples were centrifuged at 6,000 rpm for 5 min to collect the serum. Serum ALT, AST, total bilirubin, BUN, and creatinine levels were sent for analysis by IDEXX-RADIL. Serum analysis was performed as a blind study to the identity of the animals.

[3] = tested on: PSA mRNA expression in LNCaP cells; test: DHT-induced PSA mRNA in LNCaP cells, quantitative real-time RT-PCR; type: cell-based
Experimental: LNCaP cells (ATCC) were plated in 24-well plates at a density of 40-50×10^3 cells per well (80-100×10^3 cells per ml) in RPMI medium 1640 (ATCC) supplemented with 10% FBS (Irvine Scientific, Santa Ana, Calif.). After 72 h, the medium was replaced with RPMI medium 1640 containing 10% charcoal stripped FBS with or without polyamides at the designated concentrations. Cells were grown for an additional 48 h and then treated with 1 nM DHT for 16 h. When appropriate, bicalutamide was added 2 h before DHT stimulation. Isolation of RNA and cDNA synthesis was performed as described (21). Quantitative real-time RT-PCR was performed with SYBR Green PCR Master Mix (Applied Biosystems, Foster City, Calif.) on an ABI 7300 instrument. PSA mRNA was measured relative to β-glucuronidase as an endogenous control.

[4] = Liver microsomal stability, mouse; details: 1 μM, Mouse, 1 hr at 37° C., 1 mg/ml microsomes
Experimental: Briefly, each polyamide was incubated with 1 mg/ml human or mouse microsomes at 37° C. The reaction was incubated in 100 mM KH2PO4, 2 mM NADPH, 3 mM MgCl2 at pH 7.4. Samples were also incubated in the absence of NADPH to detect NADPH-free degradation. After 60 min the samples were mixed with an equal volume of ice cold methanol stop solution. The mixture was allowed to sit on ice for at least 10 min and mixed with an equal volume of water. The samples were then centrifuged to remove the precipitates and the samples were analyzed by LC/MS/MS. Data represents % remaining by comparing with time zero concentration. The experiments were performed in duplicate.

RNAP2 large subunit RPB1 = test: Immunoblot of RPB1 protein in LNCaP cells; type: cell-based
Experimental: Samples for immunoblot analysis were prepared by plating LNCaP or DU145 cells at 1 million cells per 10 cm plate. Cells were allowed to adhere for 24-36 hr prior to incubation with compound. After the appropriate incubation time cells were washed once with ice cold PBS and harvested in ice cold 125 μL lysis buffer (50 mM Tris-HCl pH 7.4, 150 mM NaCl, 1 mM EDTA, 1% Triton X100) containing protease inhibitor cocktail (Roche), 1 mM PMSF (Sigma), and phosphatase inhibitors (Sigma). Samples were allowed incubate on ice for 10 min with vortexing once every 3 min. Cellular debris was pelleted by spinning at 14,000 rpm for 15 min to collect the supernatant. Samples were then quantified for protein content with the Bradford assay (Bio-rad) and boiled with 4× sample buffer (Li-Cor) for 5 min. Protein electrophoresis was performed in 4-20% precast Tris glycine SDS gels (Bio-rad) and transferred to PVDF membranes. Membrane blocking was done with Odyssey Blocking Buffer (Li-Cor). The following antibodies used to probe changes in protein levels or phosphorylation states: RBP1 (Santa Cruz Biotechnology, N20), p53 (Santa Cruz Biotechnology, DO1), phospho-Chk2-Thr68 (Cell Signaling Technology), Phospho-p53-Ser15 (Cell Signaling Technology), phosphor-H2A.X-Ser139 (Cell Signaling Technology), phosphor-ATM-Ser1981 (Abcam), phosphor-DNA-PKcs-Ser2056 (Abcam), and […] (Abcam). […]

[5] = tested on: GR occupancy at the GILZ enhancer; test: Chromatin immunoprecipitation with anti-GR, GILZ enhancer, A549 cells; type: cell-based
Experimental: A549 cells were plated in 15-cm diameter plates. Media, polyamide treatment, time course, and […] were the same as described above. After dexamethasone treatment, cells were treated with 1% formaldehyde for 10 min. Chromatin was isolated and sheared. Antibodies to GR (graciously gifted by Keith Yamamoto) were used to immunoprecipitate GR-bound DNA fragments. Crosslinks were reversed, and PCRs using primers targeted to the regions of interest were used to assess enrichment of bound fragments as compared with mock-precipitated (no antibody) controls. PCRs were monitored with SYBR Green PCR Master Mix (Applied Biosystems) on an ABI 7300 instrument. Primer sequences and a more detailed experimental protocol are available upon request.

[6] = 20 nmol SC every three days, three injections

CN(CCCNC(=O)c1cccc(C(=O)O)c1)CCCNC(=O)c1cc(NC(=O)c2cc(NC(=O)c3cc(NC(=O)c4nc(NC(=O)[C@H](N)CCNC(=O)c5cc(NC(=O)c6cc(NC(=O)c7cc(NC(=O)c8nccn8C)cn7C)cn6C)cn5C)cn4C)cn3C)cn2C)cn1C [Polyamide 1, ImPyPyPy-2-(R)H^2Nγ-ImPyPyPy-NHMe-IPA]
cellular level of p53 protein (p53): increases | tumor weight, mean (LNCaP xenografts; [6]): 112 mg | tumor weight, median (LNCaP xenografts; [6]): 94 mg | tumor weight, range (LNCaP xenografts; [6]): 47 to 201 mg | body weight, LNCaP tumor-bearing NSG mice (LNCaP xenografts; 20 nmol, three injections): exhibited weight loss | distress and weight, tumor-free NSG mice (LNCaP xenografts; 20 nmol, three injections): no signs of distress or weight loss | reduction of tumor growth (LNCaP xenografts; after three rounds of treatment, vs vehicle): 64% | serum PSA post-treatment (LNCaP xenografts; compared to vehicle): lower | immunohistological analysis of tumors (LNCaP xenografts; mouse, in vivo): evidence of cell death by TUNEL stain | serum uric acid (LNCaP xenografts; tumor bearing mice, vs vehicle and non-tumor bearing treated mice): increases serum uric acid | cytotoxicity after 24 h treatment (LNCaP cells): minimal cytotoxicity is seen at 24 h | occupancy of AR at the FKBP5 intronic enhancer [1]: decreased occupancy | tolerability, behavior and morbidity after single SC dose ([2]; 1, 3, 10 mg/kg): no change in behavior and appearance | weight loss after single SC dose ([2]; 1, 3, 10 mg/kg, 9 days): significant weight loss only at 10 mg/kg | liver histopathology ([2]; single SC 3 mg/kg): Mild hepatocellular necrosis and apoptosis | kidney histopathology ([2]; single SC 10 mg/kg): Milder tubular regeneration and karyomegaly | liver histopathology ([2]; single SC 10 mg/kg): Mild hepatocellular necrosis and apoptosis | serum kidney markers creatinine and BUN ([2]; single SC dose): not observed for any dose level | serum liver markers AST, ALT, total bilirubin ([2]; single SC dose): significant elevation of AST, ALT, and total bilirubin at 10 mg/kg, indicative of acute damage to liver cells, and moderate elevation of ALT at 3 mg/kg | AR mRNA [3]: minimally affected | effects on cell growth ([3]; LNCaP, over the course of the experiment): no obvious detrimental effects on cell growth | Mean remaining parent NADPH-free [4]: 96.8% | Mean remaining parent with NADPH [4]: 95.2% | RPB1 protein level (RNAP2 large subunit RPB1): depletion of RPB1 in a time- and concentration-dependent manner | occupancy of GR at the GILZ enhancer ([5]; 1 μM as printed): decreased occupancy | GR occupancy at the GILZ enhancer ([5]; 10 μM, FIG. 17 legend): decreased
